Laboratory results from US11752115B2, “PPAR-alpha agonist treatment of neuropsychiatric disorders” (THE BOARD OF TRUSTEES OF THE UNIVERSITY OF ILLINOIS, priority 2017, dated 2023).
Like-named read-outs stand apart in the source and are kept apart here.

Experiments:
SI mice [1] = assay: Elevated plus maze; format: in vivo; settings: for time spent in the open arms (increase vs vehicle-treated SI mice): […] before test; for prevention of the anxiolytic effect of PEA, vs. PEA 10 mg/kg (FIG. 3D): PEA 10 mg/kg i.p. 1 h before test
Protocol: Elevated plus maze. Elevated plus maze tests were performed as previously (28). Mice chose between entering open or closed arms that extend from a central platform. An arm entry was scored when four legs were within the arm. Behavior was recorded for 5 min. The time spent and the number of open arm entries were used as index of anxiety-like behavior.

SI mice [2] = assay: Locomotor activity (Example 1); format: in vivo; settings: PEA 5, 10, 20 mg/kg i.p., G7 10 mg/kg i.p., G6 3 mg/kg i.p., FIN 50 mg/kg s.c.
Protocol: Locomotor activity. […] Horizontal sensors beam interruptions measured horizontal activity for a total of 10 min.

[3] = test system: allopregnanolone (Allo) levels; assay: Brain neurosteroid measurements (GC-MS): Allo; format: in vivo, mice; settings: for Allo content in the olfactory bulb vs. PEA-treated mice (block of PEA effect): PEA 10 mg/kg i.p. 1 h before sacrifice
Protocol: (§1) Brain neurosteroid measurements. Extraction, derivatization and quantification of unconjugated neurosteroids was described previously (32). Steroids were extracted and then purified and separated by high-performance liquid chromatography (HPLC) after addition of deuterium-labeled internal standards (25). The aqueous phase (2 ml) containing sulfated neurosteroids underwent a solvolysis. After derivatization, gas chromatography-mass spectrometry analysis in the standard electron impact mode as previously reported (24, 25).

[4] = test system: cannabinoid receptor type 1 (CB1); settings: direct activation of CB1 (Vallée et al., 2014); cited from earlier work
[5] = test system: Progesterone (Prog) levels; assay: Brain neurosteroid measurements (GC-MS): progesterone; format: in vivo; settings: SI mice, 1 h
Protocol: as §1

Pregnenolone (PE) = assay: Brain neurosteroid measurements (GC-MS): pregnenolone; format: in vivo; settings: SI mice, 1 h
Protocol: as §1

[6] = test system: 5α-dihydroprogesterone (5α-DHP); assay: Brain neurosteroid measurements (GC-MS): 5α-DHP; format: in vivo; settings: SI mice, 1 h
Protocol: as §1

[7] = Contextual fear conditioning, extinction and extinction retention; format: in vivo, mice; settings: GH mice; 5 mg/kg i.p.
Protocol: (§2) Contextual fear conditioning. Contextual fear conditioning was performed as previously (25).
(§3) Conditioning trial. Mice were placed in the chamber and exposed for 8 min to a conditioned stimulus and an electric foot-shock (unconditioned stimulus).
(§4) Reactivation. 24 h after conditioning, mice were re-exposed for 5 min to the context for retrieval/reactivation and treated immediately after reactivation.
(§5) Extinction and extinction retention. 24 h after reactivation, mice were re-introduced for 5 min in the chamber once daily for 5 days and freezing time was an index of contextual fear responses. After an interval of 8 days, mice were re-exposed to the chamber to determine extinction retention (25).

SI mice [8] = assay: as above; format: in vivo; settings: PPAR-α KO mice; 5 mg/kg i.p.
Protocol: as §2, §3, §4, §5

[9] = test system: early and late adolescent SI mice; settings: for EC50 dose, reduction of aggression: i.p., 60 min before test; for time after which aggression rebounded (duration of anti-aggressive effect): early and late adolescent SI mice
Protocol: Resident-Intruder Test. To test aggression, a male intruder mouse of the same strain as the resident mouse, was placed in a resident home cage (24 cm×17 cm×12 cm) and resident-intruder interactions were videotaped for 10 min. Aggressive behavior of SI mice was characterized by an initial pattern of exploratory activity around the intruder, followed by rearing and tail rattle, accompanied within a few seconds by wrestling and/or a violent biting attacks. The total number of wrestling and attacks during the 10 min observation period was measured as previously described (Pinna et al., 2003, 2005), 60 min after drug administration. For every drug studied, SI mice were first exposed to three behavioral sessions, and then the average of basal aggression level for every single SI mouse was calculated; 2 days later, aggression levels following treatment were tested. Treated animals showing a reduction of the number of attacks less than 30% vs. the respective basal control values were considered as “low- to non-responders.”
Statistical Analyses. Results are presented as means±SEMs unless otherwise indicated. Student's t-test, one-way ANOVA and two-way ANOVA repeated measures followed by Bonferroni post hoc test were performed to analyze experimental data; significance was set at p<0.05. EC50 values were calculated from dose-response curves analyzed by the “quantal dose-response: probits test” using the computer program of Tallarida and Murray equipped with a statistical package (Tallarida and Murray, 1987). Statistical comparisons among the different EC50s were performed with the “cohort package software.” (available at cohort.com).

SI mice [10] = assay: Tail suspension test (TST); format: in vivo
Protocol: (§6) Forced swim test and tail suspension test. The forced swim test (FST) or a tail suspension test (TST) was performed as previously (30, 31). FST sessions were video-recorded for 6 min and the last 4 min were analyzed (30). TST duration was 6 min. Immobility time was an index of depressive-like behavior.

[11] = test system: Allo sulfate (Allo-S) and other sulfated neurosteroids; assay: Brain sulfated neurosteroid measurements (GC-MS); format: in vivo; settings: SI mice; for Allo-S, hippocampus (increase): 60 minutes before sacrifice
Protocol: as §1

SI mice [12] = assay: Forced swim test (FST); format: in vivo
Protocol: as §6

TNF-α = settings: depressed patients, responders [82]; cited from earlier work
PPD patients = settings: intravenous infusions, vs only 9% of placebo-treated; cited from earlier work
[13] = test system: early and late adolescent SI mice; assay: Locomotor activity (Example 2); settings: all doses tested, i.p., 60 min before test
[14] = SI mice, 10 mg/kg i.p., 1 h before test
[15] = PPAR-α KO SI mice, 10 mg/kg i.p., 60 minutes before test

## CC(C)OC(=O)C(C)(C)Oc1ccc(C(=O)c2ccc(Cl)cc2)cc1 [fenofibrate, Fenofibrate]
SI mice [1]; SI mice, 7.5 mg/kg s.c.
  time spent in the open arms (increase vs vehicle-treated SI mice): +88%
SI mice [1]; SI mice, 30 mg/kg s.c.
  time spent in the open arms (increase vs vehicle-treated SI mice): +442%
SI mice [1]; SI mice, 120 mg/kg s.c.
  time spent in the open arms (increase vs vehicle-treated SI mice): +552%
SI mice [2]
  sedation / effect on locomotor activity: do not induce sedation

## CC(C)(Sc1ccc(CCN(CCCCC2CCCCC2)C(=O)NC2CCCCC2)cc1)C(=O)O [G7, GW7647]
SI mice [1]; [14]
  number of entries in the open arms (change vs vehicle-treated SI mice): +247%
  time spent in the open arms (change vs vehicle-treated SI mice): +506%
[3]; SI mice, 10 mg/kg i.p., 1 h
  Allo levels, olfactory bulb (increase vs vehicle-treated SI mice): +89%
SI mice [2]
  sedation / effect on locomotor activity: do not induce sedation

## CCCCCc1cc(O)c2c(c1)OC(C)(C)[C@@H]1CCC(C)=C[C@@H]21 [THC, 19-tetrahydrocannabinol]
[4]
  increase of the synthesis of pregnenolone: 30 fold

## CCCCCCCCCCCCCCCC(=O)NCCO [PEA, N-Palmitoylethanolamine]
[5]; 10 mg/kg i.p.
  Progesterone (Prog) levels, striatum (increase): +356%
[5]; 20 mg/kg i.p.
  Progesterone (Prog) levels, amygdala (increase): +223%
  Progesterone (Prog) levels, hippocampus (increase): +3128%
  Progesterone (Prog) levels, striatum (increase): +594%
Pregnenolone (PE); 5 mg/kg i.p.
  Pregnenolone (PE), olfactory bulb (increase): +50%
Pregnenolone (PE); 10 mg/kg i.p.
  Pregnenolone (PE), olfactory bulb (increase): +69%
[6]; 10 mg/kg i.p.
  5α-dihydroprogesterone (5α-DHP), hippocampus (increase): +64%
[6]; 20 mg/kg i.p.
  5α-dihydroprogesterone (5α-DHP), hippocampus (increase): +87%
SI mice [1]; GH mice, 5-10 mg/kg i.p.
  anxiolytic effect in GH mice (elevated plus maze): had no effect
SI mice [1]; [15]
  number of entries in the open arms (vs vehicle): +6%
  time spent in the open arms (vs vehicle): −1%
[7]
  contextual fear responses in GH mice: failed to affect contextual fear responses
SI mice [8]
  contextual fear responses in PPAR-α KO mice: failed to affect contextual fear responses
[9]; early SI mice, 10 mg/kg i.p.
  reduction of the number of attacks vs. basal value: −57%
[9]; early SI mice, 15 mg/kg i.p.
  reduction of the number of attacks vs. basal value: −75%
[9]; early SI mice, 20 mg/kg i.p.
  reduction of the number of attacks vs. basal value: −86%
[9]; early adolescent SI mice (PND 21)
  EC50 dose, reduction of aggression: 8 mg/kg
[9]; late SI mice, 10 mg/kg i.p.
  reduction of the number of attacks vs. basal value: −81%
[9]; late SI mice, 15 mg/kg i.p.
  reduction of the number of attacks vs. basal value: −84%
[9]; late SI mice, 20 mg/kg i.p.
  reduction of the number of attacks vs. basal value: −91%
[9]; late adolescent SI mice (PND 45)
  EC50 dose, reduction of aggression: 6.5 mg/kg
[9]; single dose 10 mg/kg and 15 mg/kg, late SI adolescent mice
  duration of anti-aggressive effect: less than 3 days
[9]; single dose 20 mg/kg, late SI mice
  time after which the effect was extinguished: 5 days
[9]; single dose 20 mg/kg, late adolescent SI mice
  duration of anti-aggressive effect (persisted): 3 days
[9]; single dose 10, 15, and 20 mg/kg, early SI mice
  time after which aggressive behavior was reinstated: 3 days
[9]; single dose 10 and 15 mg/kg, late SI mice
  time after which aggressive behavior was reinstated: 3 days
[3]; GH mice, 20 mg/kg i.p., 60 minutes before sacrifice
  Allo concentrations, olfactory bulb of GH mice: does not modify
[3]; SI PPAR-α KO mice, 10 mg/kg i.p., 1 h before sacrifice
  Allo levels, olfactory bulb of PPAR-α KO mice: failed to affect
[3]; SI mice, 10 mg/kg i.p., 1 h before sacrifice
  Allo levels in the serum (peripheral levels): failed to change
[3]; SI mice, 5, 10 and 20 mg/kg i.p., 1 h
  Allo levels, striatum: failed to change
SI mice [10]; GH-control mice, 10 mg/kg
  time of immobility in the TST in GH-control animals: lack of effect
SI mice [10]; PPAR-α KO mice, 10 mg/kg i.p.
  time of immobility in the TST vs vehicle-treated mice: +12%
SI mice [2]
  sedation / effect on locomotor activity: do not induce sedation
[11]; 10 mg/kg i.p.
  Allo-S, hippocampus (increase): +100%
[11]; 20 mg/kg i.p.
  Allo-S, hippocampus (increase): +104%
[11]; olfactory bulb and hippocampus, 5, 10 and 20 mg/kg i.p.
  other sulfated neurosteroid levels (PE sulfate, PA sulfate, DHEA sulfate): did not affect
SI mice [12]; GH-control mice, 10 mg/kg
  time of immobility in the FST in GH-control animals: lack of effect
SI mice [12]; PPAR-α KO mice, 10 mg/kg i.p.
  time of immobility in the FST vs vehicle-treated mice: +5%

## CN(C)CCC[C@@]1(c2ccc(F)cc2)OCc2cc(C#N)ccc21 [escitalopram]
TNF-α
  lower expression of TNF-α after successful treatment: 30%

## CC(C)(C)NC(=O)[C@H]1CC[C@H]2[C@@H]3CC[C@H]4NC(=O)C=C[C@]4(C)[C@H]3CC[C@]12C [FIN, Finasteride]
SI mice [1]; SI mice, 50 mg/kg s.c. 2.5 h before test
  prevention of the anxiolytic effect of PEA, vs. PEA 10 mg/kg (FIG. 3D): −68%
[3]; SI mice, 50 mg/kg s.c. 2.5 h before sacrifice
  Allo content in the olfactory bulb vs. PEA-treated mice (block of PEA effect): −60%
SI mice [2]
  sedation / effect on locomotor activity: do not induce sedation

## CCC(=O)NC[C@H](Cc1ccc(OCCc2nc(-c3ccccc3)oc2C)cc1)N/C(C)=C\C(=O)c1ccc(C(F)(F)F)cc1 [G6, GW6471]
SI mice [1]; SI mice, 3 mg/kg i.p. […] before test
  prevention of the anxiolytic effect of PEA, vs. PEA 10 mg/kg (FIG. 3D): −78%
[3]; SI mice, 3 mg/kg i.p. […] before sacrifice
  Allo content in the olfactory bulb vs. PEA-treated mice (block of PEA effect): −48%
SI mice [2]
  sedation / effect on locomotor activity: do not induce sedation

## CC(=O)[C@H]1CC[C@H]2[C@@H]3CC[C@H]4C[C@H](O)CC[C@]4(C)[C@H]3CC[C@]12C [allopregnanolone]
PPD patients
  patients with rapid and long lasting remission of depressive symptoms: 70%

## CNCC[C@H](Oc1ccc(C(F)(F)F)cc1)c1ccccc1 [S-FLX, S-fluoxetine]
[13]
  exploratory / locomotor activity: did not reduce
[9]; late SI mice, 0.75 mg/kg i.p.
  reduction in the number of attacks vs. basal value: −52%
[9]; single dose 0.375 mg/kg
  time after which aggression rebounded (duration of anti-aggressive effect): 1 days
[9]; single dose 0.75 mg/kg and […]
  time after which aggression rebounded (duration of anti-aggressive effect): 3 days
